# According to patent publication US20230218654A1, “COMPOSITIONS AND METHODS FOR TREATING HYPERGLYCEMIA IN TYPE-2 DIABETES” (The Board of Regents of the university of Oklahoma, priority 2020, published 2023):
# System: male C57BL/6J mice fed Chow or Western diet
# Experiment: MLN4924 intervention for 9 weeks in 16-week WD-fed mice (Experimental II)
# Format: in vivo
# Protocol: Chronic MLN4924 treatment attenuates hepatic steatosis in Western diet-fed mice. Male C57BL/6J mice were fed Chow (C) or Western diet (WD) for 16 weeks. MLN4924 treatment (60 mg/kg, SQ, every other day) was initiated after mice were fed WD for 7 weeks as indicated. Control mice were injected with vehicle. After 16 weeks of feeding, mice were fasted from 9 am to 3 pm and euthanized. Scale bar = 125 µm. […]
# WT male C57BL/6J mice were purchased from the Jackson Lab (Bar Harbor, ME). Western diet (TD. 88137, Envigo Inc. Indianapolis, IN) contains 42% fat calories and 0.2% cholesterol. Mice were housed in micro-isolator cages with corn cob bedding under 7 am - 7 pm light cycle and 7 pm -7 am dark cycle. MLN4924 was prepared in 10% 2-hydroxypropyl-b-cyclodextrin to a final concentration of 3 mg/ml. All mice were fasted for 6 h from 9 am to 3 pm before euthanasia. All animals received humane care according to the criteria outlined in the “Guide for the Care and Use of Laboratory Animals.” All animal protocols were approved by the Institutional Animal Care and Use Committee at the University of Kansas Medical Center and the University of Oklahoma Health Sciences Center. […]
# Human normal livers (less than 5% steatosis) and histologically confirmed NASH livers were obtained from either the University of Kansas Liver Center or the Liver Tissue Cell Distribution System (LTCDS) at the University of Minnesota. Human and mouse tissue samples were homogenized in 1XRIPA buffer containing 1% SDS and protease inhibitors. After incubation on ice for 1 hour, the samples were centrifugation and supernatant was transferred to a new tube. The protein lysate was mixed with equal volume of 2X laemmli buffer and incubated at 95° C. for 5 minutes and used for SDS-PAGE and immunoblotting. ImageJ software (NIH) was used to determine band intensity.
# Total liver RNA was purified with Trizol (Sigma-Aldrich, St. Louis, MO). Total liver RNA was used in reverse transcription with Oligo dT primer and SuperScript III reverse transcriptase (Thermo Fisher Scientific, Grand Island, NY). Real-time PCR was performed on a Bio-Rad CFX384 Real-time PCR system with iQ SYBR Green Supermix (Bio-rad, Hercules, CA). The comparative CT (Ct) method was used to calculate the relative mRNA expression. The relative mRNA expression was expressed as 2 ^-ΔΔCt with the control group arbitrarily set as “1”. […]
# [1] = chronic MLN4924, 60 mg/kg SQ once every 2 days
structure (smiles),measurement,setting,value
"NS(=O)(=O)OC[C@@H]1C[C@@H](n2ccc3c(N[C@H]4CCc5ccccc54)ncnc32)C[C@@H]1O [MLN4924, ((1S,2S,4R)-4-(4-((1S)-2,3-dihydro-1H-inden-1-ylamino)-7H-pyrrolo[2,3-d]pyrimidin-7-yl)-2-hydroxycyclopentyl) methyl sulfamate]",ALT,WD-fed mice,significantly reduced ALT
same,hepatic fat accumulation,WD-fed mice,significant reduction of hepatic fat accumulation
same,plasma insulin levels,WD-fed mice,not reduced
same,blood glucose,"WD-fed mice, intervention for 9 weeks",completely normalized blood glucose
same,liver histology,chow-fed MLN4924-treated mice,appeared normal
same,plasma insulin,chow-fed mice,did not affect plasma insulin
same,alanine aminotransferase (ALT) elevation,"chow-fed mice, 9 weeks",did not cause alanine aminotransferase (ALT) elevation
same,hypoglycemia,"chow-fed mice, intervention for 9 weeks",without causing undesirable hypoglycemia
same,hepatic glucose 6-phosphatase (G6Pase) gene,chronic MLN4924,decreased hepatic gluconeogenic gene glucose 6-phosphatase (G6Pase)
same,liver pyruvate kinase (L-PK) gene,chronic MLN4924,downregulation of liver pyruvate kinase (L-PK)
same,hepatic IRS protein,[1],increased IRS protein
same,hepatic cullin neddylation,[1],decreased hepatic cullin neddylation
same,hepatic downstream AKT activation,[1],increased IRS protein and downstream AKT activation
same,tolerability / hepatotoxicity,"chronic MLN4924, 9 weeks",well tolerated and did not cause hepatotoxicity
